According to patent US10086030B2, “Use of composition in preparing health care products or medicines for preventing and treating allergic diseases” (JIANGZHONG PHARMACEUTICAL CO., LTD., priority 2012, dated 2018):
Several values for one entry are separate records, joined by “and”; a condition that tells them apart may be missing. Equal values may be shown once.

How the values were obtained:
[1] = system: allergic asthma in rats caused by OVA; assay: Allergic asthma in rats caused by OVA: latent period of asthma, serum IL-4 and IFN-γ, EOS content in lung tissues; assay type: in vivo, SD rats
Text: Rats (half thereof were male and the other half female) were randomly divided into two groups, i.e., a blank control group of 10 animals and a modeling group of 70 animals. After a successful modeling, the rats were randomly divided into the following groups: a model control group, a positive drug group (dexamethasone group), and groups on the low, medium, and high doses of Composition 3, with 10 animals in each group.
On day 1, all animals except those in the blank control group were sensitized by intraperitoneal injection with 1 ml suspension containing 10 mg OVA, 200 mg Al(OH)3 dry powder, and 6×10^9 inactivated pertussis vaccines in physiological saline, and were sensitized once again on day 8.
The daily intake of the test drug Composition 3 composite powder recommended for one person was 24 g crude drug/60 kg body weight. On the basis thereof, the calculated daily intake for a rat was: low dose group: 1.0 g crude drug/kg body weight; medium dose group: 2.0 g crude drug/kg body weight; high dose group: 6.0 g crude drug/kg body weight, which were 2.5, 5 and 15 times the daily intake for a human, respectively. […] The volume of intragastric administration was calculated as 1.0 ml/100 g body weight. The model control group was intragastrically given an equivalent volume of 0.9% physiological saline 30 minutes before challenging; and the positive drug group was given dexamethasone at a dose of 0.5 mg/kg 30 min before each challenging^[2]. The groups on the low, medium and high doses of Composition 3 were each intragastrically given the respective dose of the test drug 30 min before each challenging. […]
A ZH-100 respiratory transducer was tied around the thoracic cage of each rat (the tension was adjusted to about 1 to 2 g so that the amplitude of the respiratory wave was 1 to 2 my). […] The acquisition system was turned on and a segment of normal respiratory wave was recorded. Then ultrasonic atomization with 1% OVA was applied for 20 min, and the respiratory waves of induced asthma in the rats were continuously recorded over 30 min after the atomization was initiated. Meanwhile, the period from the beginning of atomization to occurrence of symptoms (indicated by the first twitch) was visually observed and recorded as the latent period of asthma.
24 h after the final challenge, the rats were anaesthetized by intraperitoneal injection with 3% sodium pentobarbital (30 mg/kg). 5 to 10 ml blood was drawn, and serum IL-4 and IFN-γ levels were measured by ELISA.
The left lung tissues were cut off and fixed in 4% polyformaldehyde for 4 to 5 h, then washed with water, dehydrated with an alcohol gradient, and immersed and embedded in paraffine. HE staining was performed with a successive sectioning process, inflammatory changes in the tissues were observed, and EOS infiltration was counted. For each section, 10 fields were randomly chosen under a microscope at high magnification (×400) by the same observer, and the numbers of EOS infiltration around bronchus and vessels were calculated and averaged as the representative value for this section.
The daily intake of the test drug Composition 4 composite powder recommended for one person was 24 g crude drug/60 kg body weight. On the basis thereof, the calculated daily intake for a rat was: low dose group: 1.0 g crude drug/kg body weight; medium dose group: 2.0 g crude drug/kg body weight; high dose group: 6.0 g crude drug/kg body weight, which were 2.5, 5 and 15 times the daily intake for a human, respectively.

[2] = system: allergic asthma in guinea pigs caused by a mixed gas of Ach and His; assay: Allergic asthma in guinea pigs caused by a mixed gas of Ach and His: latent period, total IgE in serum and BALF, EOS content in lung tissues; assay type: in vivo; conditions: for latent period of asthma, Before dosing: before dosing (baseline)
Protocol: 2.2 Effect on Allergic Asthma in Guinea Pigs Caused by a Mixed Gas of Ach and his
On day 1, guinea pigs were placed in a closed 4 L glass bell jar, into which a 1:1 mixture solution of 2% Ach and 0.4% His was sprayed by ultrasonic atomization for 15 s. After completion of spraying, the latent period of asthma induced in the guinea pigs was recorded (i.e., the period from the end of the spraying to asthmatic onsets, extreme difficulty in breathing till twitching and falling down). Animals having a latent period of asthma longer than 120 s were excluded.
Dual-antibody sandwich radioimmunoassay was employed.

[3] = system: allergic asthma in rats caused by OVA; assay: Allergic asthma in rats caused by OVA: latent period of asthma, serum IL-4 and IFN-γ, EOS content in lung tissues; assay type: in vivo, SD rats; conditions: dexamethasone 0.5 mg/kg; for latent period of asthma, Before dosing: before dosing (baseline)
[4] = baseline, positive control group (dexamethasone 0.5 mg/kg)
[5] = positive control dexamethasone 0.5 mg/kg, 21 days
[6] = dexamethasone 0.5 mg/kg, Composition 6 study
[7] = dexamethasone 0.5 mg/kg, Composition 7 study
[8] = dexamethasone 0.5 mg/kg, Composition 5 study

C[C@@H]1C[C@H]2[C@@H]3CCC4=CC(=O)C=C[C@]4(C)[C@@]3(F)[C@@H](O)C[C@]2(C)[C@@]1(O)C(=O)CO [dexamethasone]
latent period of asthma induced, Before dosing [1, 4]: 75.84 ± 12.36 and 74.66 ± 11.09 and 74.64 ± 11.03
latent period of asthma induced, After dosing ([1]; positive control dexamethasone 0.5 mg/kg 30 min before each challenge, 21 days): 162.61 ± 17.88^ΔΔ and 159.77 ± 20.28^ΔΔ and 160.21 ± 20.32^ΔΔ
EOS content in lung tissues [1, 5]: 27.51 ± 4.31^ΔΔ cells/HP and 28.39 ± 4.26^ΔΔ cells/HP and 28.42 ± 4.24^ΔΔ cells/HP
serum IFN-γ [1, 5]: 20.51 ± 4.65^ΔΔ pg/ml and 20.26 ± 4.86^ΔΔ pg/ml and 20.27 ± 4.88^ΔΔ pg/ml
serum IL-4 [1, 5]: 12.88 ± 4.13^ΔΔ pg/ml and 13.51 ± 4.31^ΔΔ pg/ml and 13.50 ± 4.28^ΔΔ pg/ml
total IgE in BALF ([2]; BALF, positive control group, 0.5 mg/kg): 3.62 ± 0.62^ΔΔ U/L
latent period of asthma, After dosing ([2]; after dosing, dexamethasone 0.5 mg/kg, Composition 6 study): 155.78 ± 16.29^ΔΔ
latent period of asthma, After dosing ([2]; after dosing, dexamethasone 0.5 mg/kg, Composition 7 study): 150.46 ± 16.80^ΔΔ
latent period of asthma induced in guinea pigs, after dosing ([2]; after dosing, positive control group, 0.5 mg/kg): 156.77 ± 16.18^ΔΔ
latent period of asthma induced, Before dosing [2, 4]: 77.32 ± 13.95 and 75.63 ± 9.09 and 75.65 ± 9.10
latent period of asthma induced in guinea pigs, before dosing ([2]; before dosing (after modeling), positive control group, 0.5 mg/kg): 74.63 ± 9.04
latent period of asthma, Before dosing [2, 6]: 75.62 ± 9.10
latent period of asthma, Before dosing [2, 7]: 70.68 ± 9.65
EOS content in lung tissues [2, 8]: 30.77 ± 7.21^ΔΔ cells/HP
total IgE in BALF [2, 8]: 3.70 ± 0.73^ΔΔ U/L
total IgE in serum [2, 8]: 3.74 ± 1.32^ΔΔ U/L
EOS content in lung tissues [2, 6]: 30.80 ± 7.23^ΔΔ cells/HP
total IgE in BALF [2, 6]: 3.71 ± 0.70^ΔΔ U/L
total IgE in serum [2, 6]: 3.74 ± 1.30^ΔΔ U/L
EOS content in lung tissues [2, 7]: 31.70 ± 9.52^ΔΔ cells/HP
total IgE in BALF [2, 7]: 3.50 ± 0.78^ΔΔ U/L
total IgE in serum [2, 7]: 3.70 ± 1.26^ΔΔ U/L
EOS content in guinea pigs' lung tissues ([2]; lung tissues, positive control group, 0.5 mg/kg): 30.69 ± 7.35^ΔΔ cells/HP
EOS content in lung tissues [2, 5]: 31.78 ± 7.55^ΔΔ cells/HP and 30.79 ± 7.25^ΔΔ cells/HP
latent period of asthma induced, After dosing [2, 5]: 160.92 ± 19.72^ΔΔ and 155.77 ± 16.28^ΔΔ and 155.78 ± 16.24^ΔΔ
total IgE in BALF [2, 5]: 3.49 ± 0.82^ΔΔ U/L and 3.72 ± 0.72^ΔΔ U/L
total IgE in serum [2, 5]: 3.58 ± 1.19^ΔΔ U/L and 3.75 ± 1.31^ΔΔ U/L
total IgE in serum ([2]; serum, positive control group, 0.5 mg/kg): 3.65 ± 1.21^ΔΔ U/L
latent period of asthma, After dosing ([3]; Composition 6 study): 159.78 ± 20.27^ΔΔ
latent period of asthma, After dosing ([3]; Composition 7 study): 156.30 ± 21.44^ΔΔ
latent period of asthma, After dosing ([3]; Composition 8 study): 159.87 ± 20.38^ΔΔ
latent period of asthma, Before dosing ([3]; Composition 6 study): 74.67 ± 11.10
latent period of asthma, Before dosing ([3]; Composition 7 study): 72.88 ± 10.96
latent period of asthma, Before dosing ([3]; Composition 8 study): 73.66 ± 11.19
EOS content in lung tissues ([3]; Composition 6 study): 28.40 ± 4.25^ΔΔ cells/HP
IFN-γ (serum) ([3]; Composition 6 study): 20.27 ± 4.89^ΔΔ pg/ml
IL-4 (serum) ([3]; Composition 6 study): 13.50 ± 4.32^ΔΔ pg/ml
EOS content in lung tissues ([3]; Composition 7 study): 35.64 ± 6.18^ΔΔ cells/HP
IFN-γ (serum) ([3]; Composition 7 study): 19.29 ± 4.04^ΔΔ pg/ml
IL-4 (serum) ([3]; Composition 7 study): 12.90 ± 4.67^ΔΔ pg/ml
EOS content in lung tissues ([3]; Composition 8 study): 28.39 ± 4.26^ΔΔ cells/HP
IFN-γ (serum) ([3]; Composition 8 study): 20.16 ± 4.96^ΔΔ pg/ml
IL-4 (serum) ([3]; Composition 8 study): 13.41 ± 4.21^ΔΔ pg/ml
